For six compounds, IC50, selectivity ratio and CC50 results are on record in ChEMBL document CHEMBL4265943, “Design and synthesis of potent dual inhibitors of JAK2 and HDAC based on fusing the pharmacophores of XL019 and vorinostat” (Eur J Med Chem, 2018).

In one data set the test system is MCF7. Put plainly: Antiproliferative activity against human MCF7 cells after 72 hrs by MTT assay. It is filed as functional, cell-based. As to conditions: MCF7, 72 h. (Tetrazolium dyes change colour on reduction, which living cells bring about.)
The nature of data set [1]: Selectivity index, ratio of CC50 for human AC10 cells to IC50 for human HCT116 cells. Format: toxicity. As to conditions: AC10 cells (CC50) and HCT116 cells (IC50).
Data set [2] in a line: Selectivity index, ratio of CC50 for human AC10 cells to IC50 for human MDA-MB-231 cells. Format: toxicity. Particulars: AC10 cells (CC50) and MDA-MB-231 cells (IC50).
Data set [3] in a line: Selectivity index, ratio of CC50 for mouse TAMH cells to IC50 for human MDA-MB-231 cells. It is filed as toxicity. Particulars: TAMH cells (CC50) and MDA-MB-231 cells (IC50).
A short description of data set [4]: Selectivity index, ratio of CC50 for mouse TAMH cells to IC50 for human HCT116 cells. Format: toxicity. As to conditions: TAMH cells (CC50) and HCT116 cells (IC50).
The next data set has as its target Histone deacetylase 1 (Homo sapiens, UniProt Q13547). Put plainly: Inhibition of HDAC1 (unknown origin) using Arg-His-Lys-Lys(Ac) as substrate preincubated with enzyme followed by substrate addition for 2 hrs and measured for 1.5 hrs at 15 mins time interval by fluorescence assay.
For another data set, the system named is MDA-MB-231. Put plainly: Antiproliferative activity against human MDA-MB-231 cells after 72 hrs by MTT assay. It is filed as functional, cell-based. Particulars: MDA-MB-231, 72 h.
The next data set deals with HEL 92.1.7. Put plainly: cells. It is filed as functional, cell-based. Particulars: Homo sapiens, HEL 92.1.7, 72 h.
The next data set relates to Jurkat. Kind of data set: Antiproliferative activity against human Jurkat cells after 72 hrs by MTT assay. It is filed as functional, cell-based.
A short description of data set [5]: Antiproliferative activity against mouse TAMH cells after 72 hrs by MTT assay. It is filed as cell-based.
The target of data set [6] is T1, Protein deacetylase HDAC6 (Homo sapiens, UniProt Q9UBN7).
T1 sequence (Q9UBN7 whole entry): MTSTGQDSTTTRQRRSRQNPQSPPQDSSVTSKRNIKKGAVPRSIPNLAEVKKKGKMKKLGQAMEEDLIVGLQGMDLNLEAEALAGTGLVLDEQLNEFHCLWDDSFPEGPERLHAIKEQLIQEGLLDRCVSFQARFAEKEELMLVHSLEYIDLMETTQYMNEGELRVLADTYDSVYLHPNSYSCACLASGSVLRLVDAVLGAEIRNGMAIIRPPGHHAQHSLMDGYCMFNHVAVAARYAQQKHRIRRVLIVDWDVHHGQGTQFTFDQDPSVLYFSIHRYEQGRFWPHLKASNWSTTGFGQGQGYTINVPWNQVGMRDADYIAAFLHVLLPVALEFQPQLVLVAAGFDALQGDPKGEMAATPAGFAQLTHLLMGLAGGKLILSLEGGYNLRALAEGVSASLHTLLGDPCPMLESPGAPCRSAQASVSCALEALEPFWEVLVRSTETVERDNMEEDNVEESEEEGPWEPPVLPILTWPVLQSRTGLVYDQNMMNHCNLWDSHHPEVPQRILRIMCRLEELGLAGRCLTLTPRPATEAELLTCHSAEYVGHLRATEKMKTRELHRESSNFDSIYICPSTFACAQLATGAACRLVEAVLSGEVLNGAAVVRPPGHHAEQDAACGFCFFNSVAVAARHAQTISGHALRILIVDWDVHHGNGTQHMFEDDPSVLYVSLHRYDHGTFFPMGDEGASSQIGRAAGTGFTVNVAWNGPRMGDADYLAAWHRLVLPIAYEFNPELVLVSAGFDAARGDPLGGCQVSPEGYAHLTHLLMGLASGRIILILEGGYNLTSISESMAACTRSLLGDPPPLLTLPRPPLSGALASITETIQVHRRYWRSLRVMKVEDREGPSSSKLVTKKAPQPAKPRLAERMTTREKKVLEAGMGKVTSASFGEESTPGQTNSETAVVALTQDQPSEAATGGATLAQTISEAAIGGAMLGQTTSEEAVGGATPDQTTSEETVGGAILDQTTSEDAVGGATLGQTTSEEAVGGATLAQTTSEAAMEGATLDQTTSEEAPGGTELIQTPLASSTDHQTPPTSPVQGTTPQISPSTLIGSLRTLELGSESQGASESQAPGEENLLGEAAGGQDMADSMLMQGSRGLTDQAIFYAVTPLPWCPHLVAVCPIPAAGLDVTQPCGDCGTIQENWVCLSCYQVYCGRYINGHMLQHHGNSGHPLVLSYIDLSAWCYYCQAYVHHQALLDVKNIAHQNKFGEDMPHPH
Put plainly: Inhibition of HDAC6 (unknown origin) using Arg-His-Lys-Lys(Ac) as substrate preincubated with enzyme followed by substrate addition for 2 hrs and measured for 1.5 hrs at 15 mins time interval by fluorescence assay.

In the next data set the test system is HCT-116. Put plainly: Antiproliferative activity against human HCT116 cells after 72 hrs by MTT assay. Format: functional, cell-based. Particulars: HCT-116, 72 h.
A further data set relates to PC-3. Put plainly: Antiproliferative activity against human PC3 cells after 72 hrs by MTT assay. It is filed as functional, cell-based. As to conditions: PC-3, 72 h.
The target in data set [7] is Tyrosine-protein kinase JAK2 (Homo sapiens, UniProt O60674). Kind of data set: Inhibition of human JAK2 using poly(Glu:Tyr)(4:1) as substrate preincubated for 20 mins followed by [gamma33P]ATP addition measured after 120 mins by ion exchange filter paper method.
Sequence of Tyrosine-protein kinase JAK2 (O60674 whole entry): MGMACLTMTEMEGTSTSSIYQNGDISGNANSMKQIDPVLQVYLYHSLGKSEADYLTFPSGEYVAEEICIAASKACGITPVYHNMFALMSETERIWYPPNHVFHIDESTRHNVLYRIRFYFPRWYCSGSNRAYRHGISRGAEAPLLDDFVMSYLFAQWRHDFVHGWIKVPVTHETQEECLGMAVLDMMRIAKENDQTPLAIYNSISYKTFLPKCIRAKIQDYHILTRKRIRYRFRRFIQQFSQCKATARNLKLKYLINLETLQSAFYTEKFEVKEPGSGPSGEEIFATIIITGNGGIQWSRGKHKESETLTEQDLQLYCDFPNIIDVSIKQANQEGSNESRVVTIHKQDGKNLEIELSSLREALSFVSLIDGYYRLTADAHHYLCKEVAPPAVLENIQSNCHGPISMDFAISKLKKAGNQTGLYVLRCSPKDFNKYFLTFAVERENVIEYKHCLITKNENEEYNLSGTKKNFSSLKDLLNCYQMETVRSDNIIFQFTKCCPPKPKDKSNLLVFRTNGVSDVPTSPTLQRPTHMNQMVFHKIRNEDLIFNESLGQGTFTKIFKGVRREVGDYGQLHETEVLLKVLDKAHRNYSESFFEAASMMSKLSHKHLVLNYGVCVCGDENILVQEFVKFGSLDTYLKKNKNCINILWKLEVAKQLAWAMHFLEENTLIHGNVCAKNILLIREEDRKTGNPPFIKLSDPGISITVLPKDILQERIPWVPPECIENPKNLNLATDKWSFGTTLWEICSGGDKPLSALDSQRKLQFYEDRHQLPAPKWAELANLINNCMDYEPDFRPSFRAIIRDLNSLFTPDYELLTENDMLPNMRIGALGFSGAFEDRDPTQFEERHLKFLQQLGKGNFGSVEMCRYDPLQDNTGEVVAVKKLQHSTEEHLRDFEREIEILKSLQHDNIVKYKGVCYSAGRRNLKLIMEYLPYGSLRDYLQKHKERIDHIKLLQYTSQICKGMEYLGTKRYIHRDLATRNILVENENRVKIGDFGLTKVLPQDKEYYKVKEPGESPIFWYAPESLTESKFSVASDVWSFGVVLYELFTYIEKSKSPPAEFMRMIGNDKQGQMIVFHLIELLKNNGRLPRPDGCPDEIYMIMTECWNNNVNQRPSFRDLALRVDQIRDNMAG
A short description of data set [8]: Antiproliferative activity against human AC10 cells after 72 hrs by MTT assay. Format: cell-based.
The nature of data set [9]: Antiproliferative activity against human XG6 cells after 72 hrs by MTT assay. Format: functional, cell-based. Particulars: XG6, 72 h.
The test system of another data set is KMS-12-BM. Put plainly: Antiproliferative activity against human KMS-12-BM cells after 72 hrs by MTT assay. It is filed as functional, cell-based.
A short description of data set [10]: Selectivity index, ratio of CC50 for human AC10 cells to IC50 for human PC3 cells. It is filed as toxicity. As to conditions: AC10 cells (CC50) and PC3 cells (IC50).
The nature of data set [11]: Selectivity index, ratio of CC50 for human AC10 cells to IC50 for human MCF7 cells. It is filed as toxicity. As to conditions: AC10 cells (CC50) and MCF7 cells (IC50).
Data set [12] can be described thus: Selectivity index, ratio of CC50 for mouse TAMH cells to IC50 for human PC3 cells. It is filed as toxicity. Particulars: TAMH cells (CC50) and PC3 cells (IC50).
Data set [13] is described as follows: Selectivity index, ratio of CC50 for mouse TAMH cells to IC50 for human MCF7 cells. Particulars: TAMH cells (CC50) and MCF7 cells (IC50). Format: toxicity.

Structures are written as SMILES. Bounds are passed on as bounds.

Sequence of Histone deacetylase 1 (Q13547 whole entry): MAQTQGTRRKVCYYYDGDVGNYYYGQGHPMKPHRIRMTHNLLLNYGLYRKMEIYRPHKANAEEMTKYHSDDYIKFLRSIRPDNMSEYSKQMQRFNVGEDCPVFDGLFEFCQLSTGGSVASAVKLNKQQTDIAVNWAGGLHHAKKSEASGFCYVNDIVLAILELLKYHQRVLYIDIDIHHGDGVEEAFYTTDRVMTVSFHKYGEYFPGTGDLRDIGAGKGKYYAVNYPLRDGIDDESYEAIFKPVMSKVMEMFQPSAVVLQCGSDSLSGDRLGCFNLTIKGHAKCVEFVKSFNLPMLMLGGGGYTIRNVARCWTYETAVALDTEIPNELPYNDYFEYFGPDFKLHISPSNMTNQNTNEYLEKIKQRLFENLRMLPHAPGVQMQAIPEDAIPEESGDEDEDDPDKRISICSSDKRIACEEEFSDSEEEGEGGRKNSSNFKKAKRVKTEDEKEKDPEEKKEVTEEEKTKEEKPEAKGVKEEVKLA
Description for HEL 92.1.7: Antiproliferative activity against human HEL 92.1.7 cells after 72 hrs by MTT assay

Take `CC(=O)Nc1ccc(-c2ccnc(Nc3cccc(NC(=O)CCCCCCC(=O)NO)c3)n2)cc1`: the IC50 (usually the concentration that gives 50% inhibition) was 0.32 µM in the data set on MCF7; 0.0324 µM at Histone deacetylase 1; 2.48 µM in the data set on MDA-MB-231; more than 10 µM in the data set on HEL 92.1.7; more than 10 µM with Jurkat; 0.00081 µM in data set [6]. For the same compound, the concentration for half-maximal inhibition (IC50) in the data set with HCT-116 is 1.15 µM; in the data set with PC-3, 0.34 µM; in data set [7], 0.0092 µM. Besides, the selectivity ratio was 9.91 in data set [1], 12.7 in data set [2], 8.14 in data set [3] and 6.36 in data set [4]. Besides, the CC50 – broadly, the concentration giving 50% cytotoxicity – at 72 h was found to be 12.5 µM in data set [5] and 19.5 µM in data set [8].

With `CC(=O)Nc1ccc(-c2ccnc(Nc3ccc(OCCCCCC(=O)NO)cc3)n2)cc1`, the IC50 in the data set on MCF7 came out at 2.01 µM; in [9], 1.07 µM; against Histone deacetylase 1 it was 0.089 µM; in the data set with MDA-MB-231, 1.02 µM; with HEL 92.1.7, 1.36 µM; with Jurkat, 1.03 µM. For the same compound, the 50% inhibitory concentration (IC50) with KMS-12-BM turned out to be 0.07 µM; in data set [6], 0.0013 µM; with HCT-116 it was 1.15 µM; in the data set with PC-3, 1.51 µM. In addition, the CC50 at 72 h was determined as 7.39 µM in data set [5] and 5.74 µM in data set [8].

On to `CC(CCCCCC(=O)NO)n1cc(-c2ncnc3[nH]ccc23)cn1` (stereo unspecified), for which the IC50 in the data set on MCF7 turned out to be 0.84 µM; in data set [9], 2.01 µM; in the data set with MDA-MB-231, 0.79 µM; with HEL 92.1.7, 1.32 µM; in the data set on Jurkat, 0.47 µM; with KMS-12-BM, 2.02 µM. The IC50 was determined as 2.32 µM with HCT-116 and 2.41 µM in the data set on PC-3.

Turning to `CC(=O)Nc1ccc(-c2nc(Nc3cccc(OCCCCCCC(=O)NO)c3)ncc2C)cc1`, the IC50 with MCF7 turned out to be 1.71 µM; on Histone deacetylase 1 it was 0.155 µM; in the data set with MDA-MB-231, 1.4 µM; in data set [6] it was 0.0061 µM; with HCT-116 it was 1.19 µM; in the data set with PC-3, 2.76 µM. This compound also returned an IC50 in data set [7] of 0.0039 µM. Also, the selectivity ratio in data set [1] was 4.07; in [10], 1.75; in data set [11] it was 2.83; in data set [2] it was 3.46; in data set [3], 2.81; in data set [4] it was 3.31. Besides, the selectivity ratio in data set [12] stood at 1.43; in data set [13], 2.3. In addition, the CC50 at 72 h in data set [5] was determined as 3.94 µM; in data set [8], 4.84 µM.

Consider `CC(=O)Nc1ccc(-c2ccnc(Nc3ccc(OCCCCCCCC(=O)NO)cc3)n2)cc1`, for which the IC50 was 5.53 µM in the data set with MCF7; 10.2 µM in [9]; 1.7 µM against Histone deacetylase 1; 5.33 µM in the data set on MDA-MB-231; 3.92 µM with HEL 92.1.7; 3.48 µM in the data set on Jurkat. Further, the IC50 in the data set with KMS-12-BM is 1.96 µM; in [6], 0.014 µM; with HCT-116, 1.8 µM; with PC-3 it was 4.73 µM. For the same compound, the CC50 at 72 h in [5] stood at 9.33 µM; in data set [8], 3.5 µM.

In the case of `O=C(CCCCCCC(=O)Nc1ccc(-c2ccnc(Nc3ccccc3)n2)cc1)NO`, the IC50 in the data set with MCF7 came out at 0.33 µM; at Histone deacetylase 1 it was 0.0038 µM; in the data set on MDA-MB-231, 0.27 µM; in data set [6] it was 0.00144 µM; with HCT-116 it was 0.19 µM; in the data set on PC-3, 0.21 µM. The midpoint of inhibition in data set [7], the IC50, lay at 0.0413 µM. The selectivity ratio stood at 15.8 in data set [1]; 14.3 in data set [10]; 9.12 in [11]; 11.2 in [2]; 27 in data set [3]; 38.3 in data set [4]. Further, the results for the selectivity ratio in [12] and in data set [13] were 34.7 and 22.1, respectively. Also, the half-maximal cytotoxic concentration (CC50) at 72 h in [5] stood at 7.28 µM; in [8] it was 3.01 µM.
